In ChEMBL document CHEMBL2074419, “Induction of multidrug resistance protein 3 in rat liver is associated with altered vectorial excretion of acetaminophen metabolites” (Drug Metab Dispos, 2003):

Legend:
Format in all cases: functional, organism-based, Sprague-Dawley
[1] = molecular target: T1, ATP-binding cassette sub-family C member 3 (Rattus norvegicus, UniProt O88563); assay: (§1) TP_TRANSPORTER: quantitative PCR in vivo, liver of SD rat
[2] = molecular target: T2, ATP-binding cassette sub-family C member 2 (Rattus norvegicus, UniProt Q63120); assay: as §1
T2 sequence (Q63120 whole entry): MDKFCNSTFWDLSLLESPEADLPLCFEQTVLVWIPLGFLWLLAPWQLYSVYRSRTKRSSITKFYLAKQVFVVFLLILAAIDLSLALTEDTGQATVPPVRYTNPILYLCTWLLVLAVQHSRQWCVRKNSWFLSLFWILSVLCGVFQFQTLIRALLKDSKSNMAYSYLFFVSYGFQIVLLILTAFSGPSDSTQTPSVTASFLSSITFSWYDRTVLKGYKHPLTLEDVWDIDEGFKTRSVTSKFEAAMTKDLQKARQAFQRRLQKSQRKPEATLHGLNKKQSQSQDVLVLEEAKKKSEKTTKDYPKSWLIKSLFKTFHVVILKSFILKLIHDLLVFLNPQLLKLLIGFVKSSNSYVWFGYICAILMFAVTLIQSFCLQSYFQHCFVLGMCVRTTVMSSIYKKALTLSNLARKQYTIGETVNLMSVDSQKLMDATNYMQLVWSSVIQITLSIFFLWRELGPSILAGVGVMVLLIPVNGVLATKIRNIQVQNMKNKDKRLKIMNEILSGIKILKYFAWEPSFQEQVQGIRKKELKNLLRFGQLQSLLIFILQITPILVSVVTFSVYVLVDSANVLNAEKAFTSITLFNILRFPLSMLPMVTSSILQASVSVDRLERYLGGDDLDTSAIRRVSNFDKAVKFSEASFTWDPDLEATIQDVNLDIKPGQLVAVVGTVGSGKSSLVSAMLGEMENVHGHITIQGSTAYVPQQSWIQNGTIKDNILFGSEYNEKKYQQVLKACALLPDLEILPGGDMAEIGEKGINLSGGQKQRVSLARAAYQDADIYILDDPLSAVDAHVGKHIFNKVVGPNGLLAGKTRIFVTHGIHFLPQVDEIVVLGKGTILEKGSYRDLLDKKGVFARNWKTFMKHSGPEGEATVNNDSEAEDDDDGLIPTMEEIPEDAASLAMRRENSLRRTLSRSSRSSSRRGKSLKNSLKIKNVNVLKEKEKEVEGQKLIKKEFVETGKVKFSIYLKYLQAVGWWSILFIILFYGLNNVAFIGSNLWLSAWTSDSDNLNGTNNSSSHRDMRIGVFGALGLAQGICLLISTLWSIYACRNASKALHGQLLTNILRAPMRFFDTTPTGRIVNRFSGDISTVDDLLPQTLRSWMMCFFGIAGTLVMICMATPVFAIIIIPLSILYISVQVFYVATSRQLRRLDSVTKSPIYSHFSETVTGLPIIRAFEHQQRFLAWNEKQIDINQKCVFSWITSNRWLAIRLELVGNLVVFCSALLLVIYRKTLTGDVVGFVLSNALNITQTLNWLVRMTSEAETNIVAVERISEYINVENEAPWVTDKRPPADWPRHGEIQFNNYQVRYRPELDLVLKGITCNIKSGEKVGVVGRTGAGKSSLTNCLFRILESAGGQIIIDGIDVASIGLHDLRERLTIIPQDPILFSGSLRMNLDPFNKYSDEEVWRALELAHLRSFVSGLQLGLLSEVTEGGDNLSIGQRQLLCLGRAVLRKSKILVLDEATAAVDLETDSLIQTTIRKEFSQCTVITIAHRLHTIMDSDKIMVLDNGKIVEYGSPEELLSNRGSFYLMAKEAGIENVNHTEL

[3] = molecular target: T3, ATP-binding cassette subfamily C member 4 (Rattus norvegicus, UniProt F1M3J4); assay: as §1
T3 sequence (F1M3J4 whole entry): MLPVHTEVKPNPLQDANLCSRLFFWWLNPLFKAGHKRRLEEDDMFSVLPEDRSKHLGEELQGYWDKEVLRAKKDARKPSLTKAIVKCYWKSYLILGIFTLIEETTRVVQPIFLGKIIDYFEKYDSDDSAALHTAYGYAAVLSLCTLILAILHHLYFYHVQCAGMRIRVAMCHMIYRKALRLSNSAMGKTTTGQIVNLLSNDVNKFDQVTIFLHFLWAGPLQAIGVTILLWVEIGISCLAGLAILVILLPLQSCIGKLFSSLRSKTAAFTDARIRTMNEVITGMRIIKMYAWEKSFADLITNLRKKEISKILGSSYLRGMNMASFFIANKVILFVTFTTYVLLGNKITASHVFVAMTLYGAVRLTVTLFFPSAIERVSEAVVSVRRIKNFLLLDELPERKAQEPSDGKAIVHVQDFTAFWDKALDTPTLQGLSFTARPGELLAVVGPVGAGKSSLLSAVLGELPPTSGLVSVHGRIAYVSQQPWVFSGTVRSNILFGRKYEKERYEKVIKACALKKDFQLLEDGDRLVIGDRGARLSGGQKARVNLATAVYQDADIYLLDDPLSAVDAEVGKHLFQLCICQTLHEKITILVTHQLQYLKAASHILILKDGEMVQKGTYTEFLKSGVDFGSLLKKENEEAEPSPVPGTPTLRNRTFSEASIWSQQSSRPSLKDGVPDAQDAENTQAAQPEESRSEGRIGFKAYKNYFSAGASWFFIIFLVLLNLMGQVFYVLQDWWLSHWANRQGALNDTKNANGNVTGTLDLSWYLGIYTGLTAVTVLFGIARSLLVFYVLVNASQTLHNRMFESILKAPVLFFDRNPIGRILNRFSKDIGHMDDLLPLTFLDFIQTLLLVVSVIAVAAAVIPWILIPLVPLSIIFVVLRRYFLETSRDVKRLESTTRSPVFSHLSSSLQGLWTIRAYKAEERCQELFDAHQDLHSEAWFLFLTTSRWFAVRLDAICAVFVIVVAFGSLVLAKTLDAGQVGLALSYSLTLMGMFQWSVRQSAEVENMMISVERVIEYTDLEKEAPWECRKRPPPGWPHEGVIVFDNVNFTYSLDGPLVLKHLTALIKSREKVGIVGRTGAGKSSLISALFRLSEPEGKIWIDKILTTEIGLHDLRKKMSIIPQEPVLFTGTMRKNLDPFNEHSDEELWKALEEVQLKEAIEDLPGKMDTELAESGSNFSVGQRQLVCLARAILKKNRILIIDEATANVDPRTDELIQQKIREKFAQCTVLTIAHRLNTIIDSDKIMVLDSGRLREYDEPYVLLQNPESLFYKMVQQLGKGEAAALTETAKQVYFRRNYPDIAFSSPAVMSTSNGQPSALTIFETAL

[4] = molecular target: T1, ATP-binding cassette sub-family C member 3; assay: (§2) TP_TRANSPORTER: Western in vivo, liver of SD rat
[5] = molecular target: T2, ATP-binding cassette sub-family C member 2; assay: as §2
[6] = molecular target: T1, ATP-binding cassette sub-family C member 3; assay: (§3) TP_TRANSPORTER: quantitative PCR in vivo, kidney of SD rat
[7] = molecular target: T2, ATP-binding cassette sub-family C member 2; assay: as §3
[8] = molecular target: T3, ATP-binding cassette subfamily C member 4; assay: as §3

Measured: Activity

T1 sequence (O88563 whole entry): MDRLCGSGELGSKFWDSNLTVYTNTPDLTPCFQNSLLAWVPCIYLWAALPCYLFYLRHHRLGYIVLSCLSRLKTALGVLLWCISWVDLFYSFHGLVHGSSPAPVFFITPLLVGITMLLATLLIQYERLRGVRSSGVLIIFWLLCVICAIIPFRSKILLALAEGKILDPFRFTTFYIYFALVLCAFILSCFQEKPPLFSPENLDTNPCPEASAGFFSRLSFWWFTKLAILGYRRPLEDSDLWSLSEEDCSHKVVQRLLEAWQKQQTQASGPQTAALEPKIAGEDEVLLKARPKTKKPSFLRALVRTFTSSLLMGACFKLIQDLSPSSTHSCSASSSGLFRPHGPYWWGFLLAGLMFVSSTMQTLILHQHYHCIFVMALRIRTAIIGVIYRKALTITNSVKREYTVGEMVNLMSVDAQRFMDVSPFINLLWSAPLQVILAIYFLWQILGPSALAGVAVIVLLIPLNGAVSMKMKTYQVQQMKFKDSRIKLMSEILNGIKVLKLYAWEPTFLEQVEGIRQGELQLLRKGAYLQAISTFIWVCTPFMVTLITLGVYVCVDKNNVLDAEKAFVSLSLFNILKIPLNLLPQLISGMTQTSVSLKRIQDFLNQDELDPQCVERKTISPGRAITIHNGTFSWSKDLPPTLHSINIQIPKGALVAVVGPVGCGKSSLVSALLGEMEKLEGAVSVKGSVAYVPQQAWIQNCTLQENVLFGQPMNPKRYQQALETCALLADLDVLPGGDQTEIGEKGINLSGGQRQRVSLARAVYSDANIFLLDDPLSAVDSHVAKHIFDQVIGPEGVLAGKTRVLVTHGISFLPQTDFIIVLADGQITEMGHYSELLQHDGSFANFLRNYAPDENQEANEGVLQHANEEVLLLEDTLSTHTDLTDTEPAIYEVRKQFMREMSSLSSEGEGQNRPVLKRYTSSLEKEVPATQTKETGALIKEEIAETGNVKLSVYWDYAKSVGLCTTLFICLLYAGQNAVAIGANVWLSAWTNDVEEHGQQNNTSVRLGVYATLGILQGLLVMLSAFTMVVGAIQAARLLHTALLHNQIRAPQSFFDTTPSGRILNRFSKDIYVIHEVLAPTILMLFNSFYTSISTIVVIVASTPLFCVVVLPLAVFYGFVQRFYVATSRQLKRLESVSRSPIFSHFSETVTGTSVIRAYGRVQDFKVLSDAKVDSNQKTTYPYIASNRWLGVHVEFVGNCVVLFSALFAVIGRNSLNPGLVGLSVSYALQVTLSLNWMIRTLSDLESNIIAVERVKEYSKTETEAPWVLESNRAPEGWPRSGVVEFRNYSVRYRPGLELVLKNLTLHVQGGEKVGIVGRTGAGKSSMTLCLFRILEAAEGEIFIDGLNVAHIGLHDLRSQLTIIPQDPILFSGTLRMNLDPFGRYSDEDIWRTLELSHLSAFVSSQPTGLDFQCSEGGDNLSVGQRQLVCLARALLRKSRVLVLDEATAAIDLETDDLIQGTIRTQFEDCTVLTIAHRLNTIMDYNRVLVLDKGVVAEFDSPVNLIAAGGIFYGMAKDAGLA

c1ccc([C@H]2O[C@@H]2c2ccccc2)cc1 (relative stereo)
inducer []: [1] | [2] | [3] | [4] | [5]

C=CCSCC=C [DIALLYL SULFIDE]
not listed: [2]
inducer []: all other assays above

Cc1c(-c2cnccn2)ssc1=S [OLTIPRAZ]
inducer []: [1] | [2] | [6] | [4] | [5]

CCC1(c2ccccc2)C(=O)NC(=O)NC1=O [PHENOBARBITAL]
inducer []: [1] | [4]
